Assay results reported in patent US20050197350A1, “Novel quinoline, tetrahydroquinazoline, and pyrimidine derivatives and methods of treatment related to the use thereof” (TAISHO PHARMACEUTICAL CO., LTD., priority 2003, published 2005).

tested on: MCH receptors; test: MCH receptor activity class (method not given); conditions: MCH receptor; class by percent of control at 10^-7 M or IC50

With `CCc1cccc(NC(=S)N[C@H]2CC[C@@H](Nc3nc4c(c(N(C)C)n3)CCCC4)CC2)c1` [compound 2042] as the molecule, how does the class read?
The class was 3 (Class 3 The value of percent of control at 10^−7 M was more than 60% or the value of IC50 was more than 200 nM.).

How did the class turn out when `CN(C)c1nc(N[C@H]2CC[C@@H](NC(=S)NCc3cccc(F)c3)CC2)nc2c1CCCC2` [compound 2043] was run?
Its class is 3 (Class 3 The value of percent of control at 10^−7 M was more than 60% or the value of IC50 was more than 200 nM.).

`COc1cccc(CNC(=S)N[C@H]2CC[C@@H](Nc3nc4c(c(N(C)C)n3)CCCC4)CC2)c1` [compound 2044] was tested. Which class did it give?
Its class is 3 (Class 3 The value of percent of control at 10^−7 M was more than 60% or the value of IC50 was more than 200 nM.).

With `Cc1cccc(CNC(=S)N[C@H]2CC[C@@H](Nc3nc4c(c(N(C)C)n3)CCCC4)CC2)c1` [compound 2045] as the molecule, how does the class read?
Its class is 3 (Class 3 The value of percent of control at 10^−7 M was more than 60% or the value of IC50 was more than 200 nM.).

For `CN(C)c1nc(N[C@H]2CC[C@@H](NC(=S)Nc3ccc(Br)c(Cl)c3)CC2)nc2c1CCCC2` [compound 2046], which class is on record?
The class was 3 (Class 3 The value of percent of control at 10^−7 M was more than 60% or the value of IC50 was more than 200 nM.).

With `Cc1cc(NC(=S)N[C@H]2CC[C@@H](Nc3nc4c(c(N(C)C)n3)CCCC4)CC2)ccc1Br` [compound 2047] as the molecule, how does the class read?
Its class is 3 (Class 3 The value of percent of control at 10^−7 M was more than 60% or the value of IC50 was more than 200 nM.).

With `CCCCCCCCCCc1ccc(NC(=S)N[C@H]2CC[C@@H](Nc3nc4c(c(N(C)C)n3)CCCC4)CC2)cc1` [compound 2048] as the molecule, how does the class read?
Its class is 3 (Class 3 The value of percent of control at 10^−7 M was more than 60% or the value of IC50 was more than 200 nM.).

How did the class turn out when `CN(C)c1nc(N[C@H]2CC[C@@H](NC(=S)Nc3ccc(Oc4ccc([N+](=O)[O-])cc4)cc3)CC2)nc2c1CCCC2` [compound 2049] was run?
The class was 3 (Class 3 The value of percent of control at 10^−7 M was more than 60% or the value of IC50 was more than 200 nM.).

How did the class turn out when `CN(C)c1nc(N[C@H]2CC[C@@H](NC(=S)Nc3ccc(Sc4ccc([N+](=O)[O-])cc4)cc3)CC2)nc2c1CCCC2` [compound 2050] was run?
The class was 3 (Class 3 The value of percent of control at 10^−7 M was more than 60% or the value of IC50 was more than 200 nM.).

For `CN(C)c1nc(N[C@H]2CC[C@@H](NC(=S)Nc3ccc(S(N)(=O)=O)cc3)CC2)nc2c1CCCC2` [compound 2051], which class is on record?
The class was 3 (Class 3 The value of percent of control at 10^−7 M was more than 60% or the value of IC50 was more than 200 nM.).

How did the class turn out when `Cc1ccc(CCNC(=S)N[C@H]2CC[C@@H](Nc3nc4c(c(N(C)C)n3)CCCC4)CC2)cc1` [compound 2052] was run?
Its class is 3 (Class 3 The value of percent of control at 10^−7 M was more than 60% or the value of IC50 was more than 200 nM.).

With `CN(C)c1nc(N[C@H]2CC[C@@H](NC(=S)Nc3ccc(Oc4ccccc4)cc3)CC2)nc2c1CCCC2` [compound 2053] as the molecule, how does the class read?
The class was 3 (Class 3 The value of percent of control at 10^−7 M was more than 60% or the value of IC50 was more than 200 nM.).

How did the class turn out when `CN(C)c1nc(N[C@H]2CC[C@@H](NC(=S)Nc3ccc4c(c3)CCC4)CC2)nc2c1CCCC2` [compound 2054] was run?
Its class is 3 (Class 3 The value of percent of control at 10^−7 M was more than 60% or the value of IC50 was more than 200 nM.).

Which class does the source give for `CN(C)c1nc(N[C@H]2CC[C@@H](NC(=S)NC3CCCCCC3)CC2)nc2c1CCCC2` [compound 2055] here?
Its class is 3 (Class 3 The value of percent of control at 10^−7 M was more than 60% or the value of IC50 was more than 200 nM.).

For `C#CCNC(=S)N[C@H]1CC[C@@H](Nc2nc3c(c(N(C)C)n2)CCCC3)CC1` [compound 2056], which class is on record?
Its class is 3 (Class 3 The value of percent of control at 10^−7 M was more than 60% or the value of IC50 was more than 200 nM.).

For `CN(C)c1nc(N[C@H]2CC[C@@H](NC(=S)Nc3ccc(S(=O)(=O)N4CCCCC4)cc3)CC2)nc2c1CCCC2` [compound 2057], which class is on record?
The class was 3 (Class 3 The value of percent of control at 10^−7 M was more than 60% or the value of IC50 was more than 200 nM.).

How did the class turn out when `CN(C)c1nc(N[C@H]2CC[C@@H](NC(=S)NCCC3=CCCCC3)CC2)nc2c1CCCC2` [compound 2058] was run?
The class was 3 (Class 3 The value of percent of control at 10^−7 M was more than 60% or the value of IC50 was more than 200 nM.).

How did the class turn out when `Cc1ccc(C)c(NC(=S)N[C@H]2CC[C@@H](Nc3nc4c(c(N(C)C)n3)CCCC4)CC2)c1` [compound 2059] was run?
The class was 3 (Class 3 The value of percent of control at 10^−7 M was more than 60% or the value of IC50 was more than 200 nM.).

Which class does the source give for `CC(C)c1ccc(NC(=S)N[C@H]2CC[C@@H](Nc3nc4c(c(N(C)C)n3)CCCC4)CC2)c(Br)c1` [compound 2060] here?
Its class is 3 (Class 3 The value of percent of control at 10^−7 M was more than 60% or the value of IC50 was more than 200 nM.).

Which class does the source give for `CN(C)c1nc(N[C@H]2CC[C@@H](NC(=S)Nc3cc(F)ccc3Br)CC2)nc2c1CCCC2` [compound 2061] here?
The class was 3 (Class 3 The value of percent of control at 10^−7 M was more than 60% or the value of IC50 was more than 200 nM.).

`COc1ccccc1CNC(=S)N[C@H]1CC[C@@H](Nc2nc3c(c(N(C)C)n2)CCCC3)CC1` [compound 2062] was tested. Which class did it give?
Its class is 3 (Class 3 The value of percent of control at 10^−7 M was more than 60% or the value of IC50 was more than 200 nM.).

With `Cc1ccc(NC(=S)N[C@H]2CC[C@@H](Nc3nc4c(c(N(C)C)n3)CCCC4)CC2)cc1C` [compound 2063] as the molecule, how does the class read?
Its class is 3 (Class 3 The value of percent of control at 10^−7 M was more than 60% or the value of IC50 was more than 200 nM.).

How did the class turn out when `CN(C)c1nc(N[C@H]2CC[C@@H](NC(=S)NCCCCc3ccccc3)CC2)nc2c1CCCC2` [compound 2064] was run?
The class was 3 (Class 3 The value of percent of control at 10^−7 M was more than 60% or the value of IC50 was more than 200 nM.).

For `CN(C)c1nc(N[C@H]2CC[C@@H](NC(=S)Nc3ccc(C(C)(C)C)cc3)CC2)nc2c1CCCC2` [compound 2065], which class is on record?
Its class is 3 (Class 3 The value of percent of control at 10^−7 M was more than 60% or the value of IC50 was more than 200 nM.).

`CN(C)c1nc(N[C@H]2CC[C@@H](NC(=S)Nc3cc(Cl)ccc3F)CC2)nc2c1CCCC2` [compound 2066] was tested. Which class did it give?
Its class is 3 (Class 3 The value of percent of control at 10^−7 M was more than 60% or the value of IC50 was more than 200 nM.).

Which class does the source give for `CN(C)c1nc(N[C@H]2CC[C@@H](NC(=S)NCC3CC3)CC2)nc2c1CCCC2` [compound 2068] here?
The class was 3 (Class 3 The value of percent of control at 10^−7 M was more than 60% or the value of IC50 was more than 200 nM.).

How did the class turn out when `CCOC(=O)c1c(NC(=S)N[C@H]2CC[C@@H](Nc3nc4c(c(N(C)C)n3)CCCC4)CC2)sc2c1CCCC2` [compound 2069] was run?
The class was 3 (Class 3 The value of percent of control at 10^−7 M was more than 60% or the value of IC50 was more than 200 nM.).

For `CN(C)c1nc(N[C@H]2CC[C@@H](NC(=S)Nc3ccc(F)cc3Br)CC2)nc2c1CCCC2` [compound 2070], which class is on record?
Its class is 3 (Class 3 The value of percent of control at 10^−7 M was more than 60% or the value of IC50 was more than 200 nM.).

Which class does the source give for `CN(C)c1nc(N[C@H]2CC[C@@H](NC(=S)Nc3ccc(F)c(Cl)c3)CC2)nc2c1CCCC2` [compound 2071] here?
Its class is 3 (Class 3 The value of percent of control at 10^−7 M was more than 60% or the value of IC50 was more than 200 nM.).

Which class does the source give for `CN(C)c1ccc(NC(=S)N[C@H]2CC[C@@H](Nc3nc4c(c(N(C)C)n3)CCCC4)CC2)cc1` [compound 2072] here?
Its class is 3 (Class 3 The value of percent of control at 10^−7 M was more than 60% or the value of IC50 was more than 200 nM.).

`CCN(CC)CCCNC(=S)N[C@H]1CC[C@@H](Nc2nc3c(c(N(C)C)n2)CCCC3)CC1` [compound 2073] was tested. Which class did it give?
The class was 3 (Class 3 The value of percent of control at 10^−7 M was more than 60% or the value of IC50 was more than 200 nM.).

How did the class turn out when `CN(C)c1nc(N[C@H]2CC[C@@H](NC(=S)NCCN3CCOCC3)CC2)nc2c1CCCC2` [compound 2074] was run?
Its class is 3 (Class 3 The value of percent of control at 10^−7 M was more than 60% or the value of IC50 was more than 200 nM.).

Which class does the source give for `CN(C)c1nc(N[C@H]2CC[C@@H](NC(=S)Nc3ccc(-c4nc5c6ccccc6c6ccccc6c5o4)cc3)CC2)nc2c1CCCC2` [compound 2075] here?
Its class is 3 (Class 3 The value of percent of control at 10^−7 M was more than 60% or the value of IC50 was more than 200 nM.).

How did the class turn out when `CN(C)c1nc(N[C@H]2CC[C@@H](NC(=S)Nc3cccnc3)CC2)nc2c1CCCC2` [compound 2076] was run?
The class was 3 (Class 3 The value of percent of control at 10^−7 M was more than 60% or the value of IC50 was more than 200 nM.).

`CN(C)c1ccc(/N=N/c2ccc(NC(=S)N[C@H]3CC[C@@H](Nc4nc5c(c(N(C)C)n4)CCCC5)CC3)cc2)cc1` [compound 2077] was tested. Which class did it give?
Its class is 3 (Class 3 The value of percent of control at 10^−7 M was more than 60% or the value of IC50 was more than 200 nM.).

How did the class turn out when `CN(C)c1nc(N[C@H]2CC[C@@H](NC(=S)NCCCN3CCOCC3)CC2)nc2c1CCCC2` [compound 2078] was run?
The class was 3 (Class 3 The value of percent of control at 10^−7 M was more than 60% or the value of IC50 was more than 200 nM.).

Which class does the source give for `CN(C)c1nc(N[C@H]2CC[C@@H](NC(=S)NCc3ccc(Cl)cc3)CC2)nc2c1CCCC2` [compound 2079] here?
The class was 3 (Class 3 The value of percent of control at 10^−7 M was more than 60% or the value of IC50 was more than 200 nM.).

With `CN(C)c1nc(N[C@H]2CC[C@@H](NC(=S)Nc3ccc(/N=N/c4ccccc4)cc3)CC2)nc2c1CCCC2` [compound 2080] as the molecule, how does the class read?
The class was 3 (Class 3 The value of percent of control at 10^−7 M was more than 60% or the value of IC50 was more than 200 nM.).

For `CN(C)c1nc(N[C@H]2CC[C@@H](NC(=S)NCCN3CCCCC3)CC2)nc2c1CCCC2` [compound 2081], which class is on record?
The class was 3 (Class 3 The value of percent of control at 10^−7 M was more than 60% or the value of IC50 was more than 200 nM.).

With `CN(C)c1nc(N[C@H]2CC[C@@H](NC(=S)Nc3ccc(-n4cccn4)cc3)CC2)nc2c1CCCC2` [compound 2082] as the molecule, how does the class read?
Its class is 3 (Class 3 The value of percent of control at 10^−7 M was more than 60% or the value of IC50 was more than 200 nM.).

Which class does the source give for `CN(C)c1nc(N[C@H]2CC[C@@H](NC(=S)Nc3cccc4nsnc34)CC2)nc2c1CCCC2` [compound 2083] here?
The class was 3 (Class 3 The value of percent of control at 10^−7 M was more than 60% or the value of IC50 was more than 200 nM.).

With `CN(C)c1nc(N[C@H]2CC[C@@H](NC(=S)Nc3ccc4nsnc4c3)CC2)nc2c1CCCC2` [compound 2084] as the molecule, how does the class read?
Its class is 3 (Class 3 The value of percent of control at 10^−7 M was more than 60% or the value of IC50 was more than 200 nM.).
